Results: PubChem BioAssay AID330 (DTP/NCI, 2004)
Values joined by “and” are separate entries in the source; they are usually repeats but may differ in a detail not shown here. Equal values may be shown once. Inconclusive results and toxic doses are left out.

Test system: P388 leukemia ip, CD2F1 mice, survival T/C
Experiment: NCI In Vivo Anticancer Drug Screen. Data for tumor model P388 Leukemia (intraperitoneal) in CD2F1 (CDF1) mice
Details: endpoint: median survival time, higher = longer survival
How it was run: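 Mice carrying the transplanted tumor received test compound or vehicle. Survival was recorded in each group, and the value is the treated-group measurement divided by that of the vehicle-treated control group.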

Structure (SMILES): COc1cc(C(C)c2cc3c(cc2OC)OCO3)ccc1OCc1ccccc1 (stereo not given)
- T/C (dose: 25.0 mg/kg/injection, schedule: Q01DX005 (ip), vehicle: distilled water + Tween-80): 103 % of control
- T/C (dose: 50.0 mg/kg/injection, schedule: Q01DX005 (ip), vehicle: distilled water + Tween-80): 99 % of control and 87 % of control
- T/C (dose: 100.0 mg/kg/injection, schedule: Q01DX005 (ip), vehicle: distilled water + Tween-80): 100 % of control
- T/C (dose: 200.0 mg/kg/injection, schedule: Q01DX005 (ip), vehicle: distilled water + Tween-80): 94 % of control

Structure (SMILES): NS(=O)(=O)c1cc2c(cc1Cl)NC(Cc1ccccc1)NS2(=O)=O (stereo not given)
- T/C (dose: 60.0 mg/kg/injection, schedule: Q01DX005 (ip), vehicle: saline with Tween-80): 100 % of control
- T/C (dose: 120.0 mg/kg/injection, schedule: Q01DX005 (ip), vehicle: saline with Tween-80): 93 % of control
- T/C (dose: 240.0 mg/kg/injection, schedule: Q01DX005 (ip), vehicle: saline with Tween-80): 93 % of control

Structure (SMILES): Cn1c(=O)ccc2ccccc21
- T/C (dose: 25.0 mg/kg/injection, schedule: Q04DX002 (ip), vehicle: saline with Tween-80): 103 % of control
- T/C (dose: 50.0 mg/kg/injection, schedule: Q04DX002 (ip), vehicle: saline with Tween-80): 100 % of control
- T/C (dose: 50.0 mg/kg/injection, schedule: Q04DX003 (ip), vehicle: saline): 108 % of control
- T/C (dose: 100.0 mg/kg/injection, schedule: Q04DX002 (ip), vehicle: saline with Tween-80): 108 % of control
- T/C (dose: 100.0 mg/kg/injection, schedule: Q04DX003 (ip), vehicle: saline): 104 % of control and 113 % of control

Structure (SMILES): O=CC(NC(=O)N(CCCl)N=O)C(O)C(O)C(O)CO (stereo not given)
- T/C (dose: 0.78 mg/kg/injection, schedule: Q01DX009 (ip), vehicle: saline): 156 % of control
- T/C (dose: 1.5 mg/kg/injection, schedule: Q01DX005 (ip), vehicle: water): 158 % of control
- T/C (dose: 1.5 mg/kg/injection, schedule: Q04DX003 (ip), vehicle: saline): 153 % of control
- T/C (dose: 1.56 mg/kg/injection, schedule: Q01DX009 (ip), vehicle: saline): 195 % of control
- T/C (dose: 3.0 mg/kg/injection, schedule: Q01DX005 (ip), vehicle: saline): 169 % of control
- T/C (dose: 3.0 mg/kg/injection, schedule: Q01DX005 (ip), vehicle: water): 163 % of control and 187 % of control
- T/C (dose: 3.0 mg/kg/injection, schedule: Q04DX003 (ip), vehicle: saline): 174 % of control
- T/C (dose: 3.12 mg/kg/injection, schedule: Q01DX009 (ip), vehicle: saline): 263 % of control
- T/C (dose: 4.32 mg/kg/injection, schedule: Q04DX002 (ip), vehicle: saline): 166 % of control
- T/C (dose: 6.0 mg/kg/injection, schedule: Q01DX001 (ip), vehicle: saline): 157 % of control
- T/C (dose: 6.0 mg/kg/injection, schedule: Q01DX001 (iv), vehicle: saline): 109 % of control
- T/C (dose: 6.0 mg/kg/injection, schedule: Q01DX005 (ip), vehicle: saline): 205 % of control
- T/C (dose: 6.0 mg/kg/injection, schedule: Q01DX005 (ip), vehicle: water): 199 % of control and 264 % of control
- T/C (dose: 6.0 mg/kg/injection, schedule: Q01DX005 (iv), vehicle: saline): 192 % of control
- T/C (dose: 6.0 mg/kg/injection, schedule: Q04DX003 (ip), vehicle: saline): 205 % of control
- T/C (dose: 7.2 mg/kg/injection, schedule: Q04DX002 (ip), vehicle: saline): 169 % of control
- T/C (dose: 12.0 mg/kg/injection, schedule: Q01DX001 (ip), vehicle: saline): 212 % of control
- T/C (dose: 12.0 mg/kg/injection, schedule: Q01DX005 (ip), vehicle: saline): 258 % of control
- T/C (dose: 12.0 mg/kg/injection, schedule: Q01DX005 (ip), vehicle: water): 265 % of control and 91 % of control
- T/C (dose: 12.0 mg/kg/injection, schedule: Q01DX005 (iv), vehicle: saline): 119 % of control
- T/C (dose: 12.0 mg/kg/injection, schedule: Q04DX002 (ip), vehicle: saline): 212 % of control
- T/C (dose: 12.0 mg/kg/injection, schedule: Q04DX003 (ip), vehicle: saline): 285 % of control and 371 % of control and 401 % of control
- T/C (dose: 18.0 mg/kg/injection, schedule: Q04DX003 (ip), vehicle: saline): 153 % of control and 175 % of control
- T/C (dose: 20.0 mg/kg/injection, schedule: Q04DX002 (ip), vehicle: saline): 287 % of control
- T/C (dose: 24.0 mg/kg/injection, schedule: Q01DX001 (ip), vehicle: saline): 277 % of control
- T/C (dose: 24.0 mg/kg/injection, schedule: Q01DX001 (iv), vehicle: saline): 166 % of control
- T/C (dose: 27.0 mg/kg/injection, schedule: Q04DX003 (ip), vehicle: saline): 96 % of control
- T/C (dose: 40.0 mg/kg/injection, schedule: Q04DX003 (ip), vehicle: saline): 74 % of control and 98 % of control
